From patent US11684607B2, “Secnidazole for use in the treatment of bacterial vaginosis” (priority 2014, dated 2023)

Columns and labels:
[1] = Safety evaluation (adverse events, vital signs, ECGs, laboratory tests) after single 1 g or 2 g dose of SYM-1219; type: in vivo, human; settings: single 1 g or 2 g oral dose; healthy female subjects
Method: Methods: 28 healthy female subjects (14/group) ages 18-65 years were randomized to receive a single oral dose of either 1 or 2 grams of SYM-1219, mixed into 4 oz. of applesauce. […] Safety was evaluated by recording adverse events, vital signs, ECGs and laboratory tests.

[2] = Single oral dose pharmacokinetics (plasma and urine) of SYM-1219 microgranule formulation in fasted healthy female subjects; settings: for AUC(0-t): AUC0-t; for CL renal: CLr
Method: A non-compartmental analysis was performed and the PK parameters for each treatment group are reported.

[3] = female, human, plasma, po, 1 g, Geometric Mean, 1 gram single oral dose, fasted, N = 14
[4] = female, human, plasma, po, 1 g, Mean, 1 gram single oral dose, fasted, N = 14
[5] = female, human, plasma, po, 1 g, Median, 1 gram single oral dose, fasted, N = 14
[6] = plasma, 1 gram single oral dose, fasted, N = 14
[7] = plasma, 2 grams single oral dose, fasted, N = 14
[8] = urine, 1 gram single oral dose, fasted, N = 14
[9] = urine, 2 grams single oral dose, fasted, N = 14

## Cc1ncc([N+](=O)[O-])n1CC(C)O (centres unmarked) [SYM-1219, 1-(2-hydroxypropyl)-2-methyl-5-nitromidazole]
[1]
  changes in vital signs, electrocardiogram (ECG) or laboratory parameters: no significant changes
  safety and tolerability: safe and well-tolerated
  severity and outcome of all adverse events: mild and resolved without sequelae
[2]; 1 g and 2 g doses
  intersubject variability for Cmax and AUC: < 20 % CV
  renal clearance as percentage of the glomerular filtration rate typically found in healthy subjects: < 5%
[2]; 1 g dose
  Urinary excretion of unchanged SYM-1219, share of the administered dose: 13.6%
[2]; 2 g dose
  Urinary excretion of unchanged SYM-1219, share of the administered dose: 15.3%
[2]; both dose groups (1 g and 2 g)
  time by which maximum concentrations were achieved: approximately 4 hrs.
[2]; comparing the 1 and 2 g doses
  dose proportionality of pharmacokinetics: dose proportional
[2]; female, human, plasma, oral, 1 g, Exposure estimate (AUCinf)
  AUC(0-inf): 619 µg·h/mL
[2]; female, human, plasma, oral, 2 g, Exposure estimate (AUCinf)
  AUC(0-inf): 1330 µg·h/mL
[2]; female, human, plasma, po, 1 g
  Tmax: 3.06 h
[2]; [3]
  AUC(0-t): 603 µg·h/mL
  Cmax: 22400 ng/mL
[2]; [4]
  AUC(0-t): 610 µg·h/mL
  Cmax: 22600 ng/mL
[2]; [5]
  AUC(0-t): 587 µg·h/mL
  Cmax: 22800 ng/mL
[2]; female, human, plasma, po, 1 gram, AUC0-∞, Geometric Mean, 1 gram single oral dose, fasted, N = 14
  AUC(0-inf): 612 µg·h/mL
[2]; female, human, plasma, po, 1 gram, AUC0-∞, Mean, 1 gram single oral dose, fasted, N = 14
  AUC(0-inf): 619 µg·h/mL
[2]; female, human, plasma, po, 1 gram, AUC0-∞, Median, 1 gram single oral dose, fasted, N = 14
  AUC(0-inf): 595 µg·h/mL
[2]; female, human, urine, po, 1 gram, Geometric Mean, 1 gram single oral dose, fasted, N = 14
  CL renal: 3.65 mL/min
[2]; female, human, urine, po, 1 gram, Mean, 1 gram single oral dose, fasted, N = 14
  CL renal: 3.74 mL/min
[2]; plasma, 1 g dose
  Mean maximum concentration: 22.6 µg/mL
[2]; [6]
  t1/2, Mean: 17.05 h
  t1/2, Median: 16.79 h
  λz, Mean: 0.04099 h⁻¹
  λz, Median: 0.04129 h⁻¹
[2]; plasma, 2 g dose
  Mean maximum concentration: 45.4 µg/mL
[2]; [7]
  AUC0-t, Geometric Mean: 1305.35 µg·h/mL
  AUC0-t, Mean: 1322.40 µg·h/mL
  AUC0-t, Median: 1290.41 µg·h/mL
  AUC0-∞, Geometric Mean: 1314.74 µg·h/mL
  AUC0-∞, Mean: 1331.63 µg·h/mL
  AUC0-∞, Median: 1299.10 µg·h/mL
  Cmax, Geometric Mean: 44840 ng/mL
  Cmax, Mean: 45430 ng/mL
  Cmax, Median: 45050 ng/mL
  Tmax, Median: 4.000 h
  t1/2, Mean: 16.86 h
  t1/2, Median: 17.13 h
  λz, Mean: 0.0422 h⁻¹
  λz, Median: 0.04047 h⁻¹
[2]; [8]
  % FE, Geometric Mean: 13.403%
  % FE, Mean: 13.602%
  % FE, Median: 13.981%
  Ae0-168, Geometric Mean: 0.134 g
  Ae0-168, Mean: 0.136 g
  Ae0-168, Median: 0.140 g
  CLr, Median: 3.965 mL/min
[2]; [9]
  % FE, Geometric Mean: 14.991%
  % FE, Mean: 15.300%
  % FE, Median: 14.943%
  Ae0-168, Geometric Mean: 0.300 g
  Ae0-168, Mean: 0.306 g
  Ae0-168, Median: 0.299 g
  CLr, Geometric Mean: 3.801 mL/min
  CLr, Mean: 3.935 mL/min
  CLr, Median: 3.962 mL/min
